# Results reported in patent US11903945B2, “Methods of treating antipsychotic-induced weight gain with miricorilant” (Corcept Therapeutics Incorporated, priority 2019, dated 2024).
# Several values for one entry are separate records, joined by “and”; a condition that tells them apart may be missing. Identical values can stand only once. Entries after “also recorded” stand apart in the source; their conditions may differ. Like-named read-outs stand apart in the source and are kept apart here.
# Columns and labels:
# [1] = patients, cited from earlier work; for Mean body weight increase over a period of ten weeks: Allison et al., Am J. Psychiatry 1999
# [2] = test system: tyrosine aminotransferase (TAT) in HepG2 cells; conditions: HepG2 human liver hepatocellular carcinoma cell line; cited from earlier work
# [3] = for Triglycerides increase from baseline on Day 8 / Triglycerides increase from baseline on Day 15: listed as miricorilant = MIRI 600 mg/day + OLZ, unit given in Table 1, not in Table 2; for Body weight increase from baseline, percent of baseline, day 8 / Body weight increase from baseline, percent of baseline, day 15: from Table 2 with Table 1 baselines
# Experimental: The dose level tested in our Phase 1b trial was 600 mg/day.
# A 2-week, single-center, double-blind, randomized, placebo-controlled study was conducted in healthy male subjects age 18-55 years with BMI between 18-25 kg/m^2 and a stable body weight (defined as the Day 1 pre-dose body weight to be within ±2.0% of screening body weight). […] Food was freely available to all subjects during the study. The difference in mean change in absolute body weight after administration of OLZ+PBO compared to OLZ+MIRI was evaluated using a repeated measures model with imputation applied to missing values.
# (HOMA2-IR values were calculated from fasted glucose and insulin levels using the HOMA (HOMA2 Model) Calculator® application programming interface for SAS (Oxford University 2013, available at the website www.dtu.ox.ac.uk/homacalculator)).
# [4] = Hunt et al., Bioorg Med Chem Lett. 2012; cited from earlier work
# progesterone receptor = target: T1, progesterone receptor (Homo sapiens, UniProt P06401); conditions: cited from earlier work
# T1 sequence (P06401 1-933): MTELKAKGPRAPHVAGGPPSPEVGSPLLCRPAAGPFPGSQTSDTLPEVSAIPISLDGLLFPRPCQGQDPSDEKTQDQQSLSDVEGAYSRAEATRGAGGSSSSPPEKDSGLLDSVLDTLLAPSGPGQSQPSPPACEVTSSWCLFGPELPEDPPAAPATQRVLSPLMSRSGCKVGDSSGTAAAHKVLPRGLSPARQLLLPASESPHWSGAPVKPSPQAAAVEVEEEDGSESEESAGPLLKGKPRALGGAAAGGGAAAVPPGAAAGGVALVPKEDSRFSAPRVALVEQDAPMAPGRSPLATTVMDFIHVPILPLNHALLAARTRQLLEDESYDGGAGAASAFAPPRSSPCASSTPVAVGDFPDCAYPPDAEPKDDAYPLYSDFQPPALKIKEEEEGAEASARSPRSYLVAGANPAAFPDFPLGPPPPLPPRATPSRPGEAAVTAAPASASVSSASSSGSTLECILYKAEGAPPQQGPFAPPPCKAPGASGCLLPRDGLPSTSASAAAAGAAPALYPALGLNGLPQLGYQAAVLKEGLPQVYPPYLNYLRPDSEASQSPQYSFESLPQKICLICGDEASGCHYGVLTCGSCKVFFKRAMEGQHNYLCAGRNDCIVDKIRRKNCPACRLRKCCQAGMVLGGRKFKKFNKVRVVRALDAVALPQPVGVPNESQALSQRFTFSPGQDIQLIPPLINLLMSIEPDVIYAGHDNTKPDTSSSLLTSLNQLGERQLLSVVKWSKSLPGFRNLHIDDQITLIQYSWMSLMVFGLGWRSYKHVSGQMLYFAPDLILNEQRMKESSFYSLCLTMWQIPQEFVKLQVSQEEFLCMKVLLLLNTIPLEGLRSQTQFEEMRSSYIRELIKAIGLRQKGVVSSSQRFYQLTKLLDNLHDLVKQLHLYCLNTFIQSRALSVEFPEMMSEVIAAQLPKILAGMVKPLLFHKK
# [5] = format: in vivo; conditions: female rats; for Study day from which body weight reduction became statistically significant: treatment started Day 35
# Experimental: On day 35, the rodents were randomized to 4 different interventions and remained on study until day 57. The four intervention groups were: OLZ+vehicle daily by oral gavage; OLZ+2 mg/kg/day miricorilant once daily; OLZ+1 mg/kg miricorilant twice daily; and OLZ+10 mg/kg/day miricorilant once daily. A fifth group, a vehicle-only group (n=12), was included as a control for the entirety of the 57 days.
# Starting at week 6, either miricorilant (MIRI, 3 dosing regimens) or vehicle 2 was administered orally. […] The vehicle-only group was included as a control for the 8-week duration of the study. Efficacy was assessed based on body weight, food consumption, mortality, and clinical observations.
# The articles were stored refrigerated between dosing.
# Body weights were measured and recorded three times weekly during the acclimation period, every other day beginning on Day −1, and prior to termination on Day 57. Food consumption was measured and recorded daily beginning on Day −14. Body weights and food consumption were measured within 2 hours of the initial time on Day −1. Any changes in bodyweight greater than 15 grams (g) and changes in food consumption greater than 5 g were verified. Food jars were weighed twice for precision during food jar changes.
# [6] = patients; doubled from 1.3±0.5 at baseline; Ebenbichler et al. 2003; cited from earlier work
# [7] = olanzapine prescribing information; cited from earlier work
# [8] = (1 − (A/B)) × 100, MIRI 600 mg/day + OLZ vs placebo + OLZ, healthy male subjects
# [9] = healthy male subjects, day not given, listed as miricorilant = olanzapine+miricorilant, listed as olanzapine = olanzapine+placebo
# [10] = healthy male subjects, listed as miricorilant = MIRI 600 mg/day + OLZ 10 mg/day, listed as olanzapine = placebo + OLZ 10 mg/day
# [11] = healthy male subjects, listed as olanzapine = placebo + OLZ 10 mg/day
# [12] = healthy male subjects, listed as miricorilant = olanzapine+miricorilant, listed as olanzapine = olanzapine+placebo
# [13] = Group 3: OLZ + miricorilant 1 mg/kg/dose BID
# [14] = Group 4: OLZ + miricorilant 2 mg/kg/dose QD
# [15] = Group 5: OLZ + miricorilant 10 mg/kg/dose QD
# [16] = first week of miricorilant treatment with OLZ, P<0.01
smiles,measurement,setting,value
CN1CCN(C2=Nc3cc(Cl)ccc3Nc3ccccc32)CC1 [clozapine],Mean body weight increase over a period of ten weeks,[1],4.45 kg
CC#C[C@]1(O)CC[C@H]2[C@@H]3CCC4=CC(=O)CCC4=C3[C@@H](c3ccc(N(C)C)cc3)C[C@@]21C [mifepristone],Effect on activity of tyrosine aminotransferase (TAT) in HepG2 cells,[2],decreases
"O=c1[nH]c(=O)c(Cc2cccc(C(F)(F)F)c2)c([C@H]2CC[C@H](c3ccccc3)CC2)[nH]1 [miricorilant, (E)-6-(4-Phenylcyclohexyl)-5-(3-trifluoromethylbenzyl)-1H-pyrimidine-2,4-dione]","% reduction in OLZ-induced increase: HOMA2-IR, Day 8",[3]; [8],38%
same,"% reduction in OLZ-induced increase: HOMA2-IR, Day 15",[3]; [8],39%
same,"% reduction in OLZ-induced increase: body weight, Day 8",[3]; [8],25%
same,"% reduction in OLZ-induced increase: body weight, Day 15",[3]; [8],22%
same,"% reduction in OLZ-induced increase: insulin, Day 8",[3]; [8],38%
same,"% reduction in OLZ-induced increase: insulin, Day 15",[3]; [8],39%
same,"% reduction in OLZ-induced increase: triglycerides, Day 8",[3]; [8],49%
same,"% reduction in OLZ-induced increase: triglycerides, Day 15",[3]; [8],45%
same,Difference in weight gain between treatment groups on day 15,"[3]; OLZ+MIRI vs OLZ+PBO, MMRM, P=0.017, 95% CI [−1.94, −0.19], healthy male subjects",-1.07 kg
same,Difference in weight gain between treatment groups on day 8,"[3]; OLZ+MIRI vs OLZ+PBO, MMRM, P=0.044, 95% CI [−1.77, −0.02], healthy male subjects",-0.9 kg
same,Difference in triglyceride increase on day 8,"[3]; OLZ+MIRI vs OLZ+PBO, P<0.001, healthy male subjects",-0.53 mmol/L
same,Difference in HOMA2-IR on day 15,"[3]; OLZ+MIRI vs OLZ+PBO, P=0.007, healthy male subjects",−0.47
same,Difference in HOMA2-IR on day 8,"[3]; OLZ+MIRI vs OLZ+PBO, P=0.012, healthy male subjects",−0.44
same,Difference in plasma insulin increase on day 8,"[3]; OLZ+MIRI vs OLZ+PBO, P=0.013, healthy male subjects",−3.49 mIU/L
same,Difference in triglyceride increase on day 15,"[3]; OLZ+MIRI vs OLZ+PBO, P=0.057, healthy male subjects",-0.28 mmol/L
same,HOMA2-IR level relative to baseline,[3]; [9],less than 2 fold
same,"Insulin resistance (HOMA2-IR) increase from baseline, percent",[3]; [9],about 90%
same,Body weight increase from baseline on Day 8,[3]; [10],2.6 kg and 2.59 kg
same,Body weight increase from baseline on Day 15,[3]; [10],3.9 kg and 3.91 kg
same,HOMA2-IR increase from baseline on Day 8,[3]; [10],0.71
same,HOMA2-IR increase from baseline on Day 15,[3]; [10],0.74
same,Insulin increase from baseline on Day 8,[3]; [10],5.65 mIU/L
same,Insulin increase from baseline on Day 15,[3]; [10],5.91 mIU/L
same,Triglycerides increase from baseline on Day 8,[3]; [11],0.56 mmol/L
same,Triglycerides increase from baseline on Day 15,[3]; [11],0.34 mmol/L
same,"Insulin increase from baseline, percent, day 8",[3]; [12],about 92%
same,"Insulin increase from baseline, percent, day 15",[3]; [12],97%
same,"Triglycerides increase from baseline, percent, day 8",[3]; [12],about 60%
same,"Triglycerides increase from baseline, percent, day 15",[3]; [12],37%
same,"Body weight increase from baseline, percent of baseline, day 8",[3]; [12],about 3.6%
same,"Body weight increase from baseline, percent of baseline, day 15",[3]; [12],5.4%
same,"ALT increase from baseline, percent, day 7","[3]; human, in vivo",152%
same,"ALT increase from baseline, percent, day 12","[3]; human, in vivo",528%
same,"AST increase from baseline, percent, day 7","[3]; human, in vivo",71%
same,"AST increase from baseline, percent, day 12","[3]; human, in vivo",192%
same,Difference in ALT levels between treatment arms on day 12,"[3]; human, in vivo",−49.99 IU/L
same,Difference in AST levels between groups on day 12,"[3]; human, in vivo",−32.24 IU/L
same,Tolerability of the dose,"[3]; human, in vivo",very well tolerated
same,Difference in plasma insulin increase on day 15,"[3]; printed as between PBO and OLZ, P=0.007, healthy male subjects",3.74 mIU/L
same,Effect on olanzapine-induced weight gain in rats,[4],prevent olanzapine-induced weight gain
same,Affinity for the progesterone receptor,progesterone receptor,without affinity
same,Study day from which body weight reduction became statistically significant,[5]; Group 3: 1 mg/kg/dose BID,36
same,Body weight reduction at Day 57 vs olanzapine control Group 2 ([…] g),[5]; [13],13%
same,Least Squares (LS) mean body weight at Day 57,[5]; [13],268 g
same,Group mean body weight at Day 57,"[5]; Group 3: OLZ + miricorilant 1 mg/kg/dose BID oral, Days 35-57",269 g
same,Study day from which body weight reduction became statistically significant,[5]; Group 4: 2 mg/kg/dose QD,38
same,Body weight reduction at Day 57 vs olanzapine control Group 2 ([…] g),[5]; [14],12%
same,Least Squares (LS) mean body weight at Day 57,[5]; [14],272 g
same,Loss compared with basal body weight (vehicle-only control) at the end of the study,[5]; [14],no significant loss; also recorded: no reduction
same,Group mean body weight at Day 57,"[5]; Group 4: OLZ + miricorilant 2 mg/kg/dose QD oral, Days 35-57",272 g
same,Study day from which body weight reduction became statistically significant,[5]; Group 5: 10 mg/kg/dose QD,36
same,Body weight reduction at Day 57 vs olanzapine control Group 2 ([…] g),[5]; [15],17%
same,Least Squares (LS) mean body weight at Day 57,[5]; [15],259 g
same,Group mean body weight at Day 57,"[5]; Group 5: OLZ + miricorilant 10 mg/kg/dose QD oral, Days 35-57",258 g
same,Food consumption by the end of the study,[5]; all three miricorilant dose regimens with OLZ,returned to vehicle-only levels
same,Decrease in weight compared to the OLZ+vehicle group,"[5]; days 35-57, all three miricorilant regimens with OLZ, p<0.05",12-17%
same,Food consumption lower compared to olanzapine-only animals,[5]; [16],16%-23%
same,Food consumption lower compared to vehicle-only controls,[5]; [16],13%-20%
same,Mortality,"[5]; miricorilant 1 mg/kg BID, 2 or 10 mg/kg QD with OLZ, Days 35-57",no mortalities
same,Effect on olanzapine-induced body weight gains and food consumption increases,"[5]; oral, all three dose regimens, within first week of treatment (Week 6), maintained",completely abrogated
"Cc1cc2c(s1)Nc1ccccc1N=C2N1CCN(C)CC1 [olanzapine, reference compound]",Body weight increase from baseline on Day 8,[3]; [10],3.5 kg and 3.49 kg
same,Body weight increase from baseline on Day 15,[3]; [10],5.0 kg and 4.99 kg
same,HOMA2-IR increase from baseline on Day 8,[3]; [10],1.15
same,Insulin increase from baseline on Day 8,[3]; [10],9.14 mIU/L
same,Insulin increase from baseline on Day 15,[3]; [10],9.65 mIU/L
same,Triglycerides increase from baseline on Day 8,[3]; [11],1.09 mmol/L
same,Triglycerides increase from baseline on Day 15,[3]; [11],0.62 mmol/L
same,"Insulin increase from baseline, percent, day 15",[3]; [12],127%
same,"Triglycerides increase from baseline, percent, day 8",[3]; [12],115%
same,"Triglycerides increase from baseline, percent, day 15",[3]; [12],65%
same,"Body weight increase from baseline, percent of baseline, day 8",[3]; [12],4.9%
same,"Body weight increase from baseline, percent of baseline, day 15",[3]; [12],6.9%
same,Number of participants who discontinued the study due to elevated liver enzymes,"[3]; male, human, in vivo, 14 days",5
same,HOMA-IR after 8 weeks of olanzapine treatment,[6],2.6±1.4 mmol/mU·L
same,Adult patients with triglyceride increases of ≥50 mg/dL at 12 weeks,[7],~40%
same,Adult patients with triglyceride increases of ≥50 mg/dL at 48 weeks,[7],more than 60%
same,Weight gained after about 40 weeks of administration,[1]; Allison et al. 2001,7 to 8 kg
OCCOCCN1CCN(C2=Nc3ccccc3Sc3ccccc32)CC1 [quetiapine],"Weight gained after treatment for a ""short time""",[1]; Allison et al. 2001,about 3 kg
Cc1nc2n(c(=O)c1CCN1CCC(c3noc4cc(F)ccc34)CC1)CCCC2 [risperidone],Weight gained over 8-12 weeks,[1]; Allison et al. 2001,2 to 3 kg
O=C1NCCN1CCN1CCC(c2cn(-c3ccc(F)cc3)c3ccc(Cl)cc23)CC1 [sertindole],Mean body weight increase over a period of ten weeks,[1],2.92 kg
